# Measured values taken from US6444470B1, “Transformation-enhancing compositions and methods of use” (Pioneer Hi-Bred International, Inc., priority 1999, dated 2002).
# Read-outs that look alike come from different tables or passages of the source.
# Tests used:
# maize elite inbred P38 [1] = assay: Pre-harvest ear injection, then Agrobacterium-mediated transformation, inbred P38; assay type: in vivo
# Experimental: (§1) Ears from greenhouse-grown or field-grown maize elite inbreds, P38 and N46, were treated with one of the following agents or combinations of agents at three days after pollination: dicamba, hormone cocktail, 2,4-D (2,4-dichlorophenoxyacetic acid), callus medium, water, ABA, Pluronic F68, proline mix, ACC, AVG, salts cocktail 4, salts cocktail 2 (Gamborg et al. (1968) Exp. Cell Res. 50:151), salts cocktail 1 (Murashige and Skoog (1962) Physiol. Plant. 15:473), salts cocktail 3 (Chu et al. (1975) Scientia Sinic. 18:659), 2,4D+salts cocktail 1, 2,4-D+salts cocktail 3, 2,4-D+dicamba and dicamba+ACC. The solutions were filter sterilized before applying to the ears at a rate of 10 mL/ear. The solutions were applied to the ears by injecting between the silks and husks at three days post pollination. Care was taken not to disrupt the ears.
# (§2) Agrobacterium-mediated transformation of maize was also employed. See, U.S. application Ser. No. 08/788,018, herein incorporated by reference.
# (§3) The ear injection was conducted as described in Example I. Other synthetic auxins were tested for their effects on the transformation of N46 and P38 maize.
# (§4) An endogenous plant growth regulator, abscisic acid (ABA), and other compounds known to influence plant growth were tested for their effects on maize transformation when applied to ears at four days after pollination using the injection method described in Example I. Additionally, the effect of the injection of water was also tested. […] ACC is a product of the reaction catalyzed by ACC synthase and a substrate of the reaction catalyzed by ACC oxidase, the ethylene-forming enzyme. AVG, on the other hand, is an inhibitor of ACC synthase.
# Several nitrogen-containing treatments were applied to ears at three days after pollination. The treatments employed are salt formulations that are commonly used in plant tissue culture media including salts cocktail 4, salts cocktail 2, salts cocktail 1 and salts cocktail 3.
# Finally, some combination treatments were examined for their effects on the transformation of N46 and P38 maize (Table 7).
# maize elite inbred N46 = assay: Pre-harvest ear injection, then Agrobacterium-mediated transformation, inbred N46; assay type: in vivo; conditions: for percent of transformed colonies relative to the no-infusion control (in words): pre-harvest ear injection
# Experimental: as §1, §2, §3, §4
# Several nitrogen-containing treatments were applied to ears at three days after pollination. The treatments employed are salt formulations that are commonly used in plant tissue culture media including salts cocktail 4, salts cocktail 2, salts cocktail 1 and salts cocktail 3. […]
# maize ears = assay: Lanolin-paste application to ears, then particle bombardment transformation; assay type: in vivo; conditions: for 21 Day Callus Response / 42 Day Callus Response / Regenerable Colonies / Plants Transformed: 0.5% in lanolin paste on half an ear, three days after pollination; for Plants Transformed: particle bombardment; for recovery of regenerable colonies and transformed plants (in words): lanolin paste, versus lanolin controls and non-treated control
# From the text: Transformation-enhancing compounds were also introduced via lanolin. kLanolin paste was typically applied at a mass of 1 gram per ear. Husks were peeled back, but not removed, silks were removed, and the lanolin mixed with the compound was applied to the pericarp of the developing seed using a spatula. Ears were divided into halves longitudinally: one half would received lanolin with the compound and the other half received only lanolin.
# Al media recipes are in the Table 10-18.
# The effects of pre-harvest ear treatments of zeatin riboside and 2,4-D on maize transformation were investigated. Both agents were applied to separate ears at three days after pollination in a lanolin paste. The method employed for applying the transformation-enhancing agents of the invention to ears in lanolin paste is described in Example I. Ears were divided into halves longitudinally with one half of the ear receiving lanolin with zeatin riboside or 2,4-D and the other half receiving only lanolin. An additional ear that was not treated was used as a control.
# maize elite inbred P38 [2] = system: maize elite inbred P38
# Experimental: as §1
# (§5) For transformation by particle bombardment, maize ears were harvested at ten days after pollination and surface sterilized in 50% CHLOROX™ laundry bleach plus 0.5% Tween 20 surfactant for 20 minutes, and rinsed two times with sterile water. The immature embryos were excised and placed embryo axis side down (scutellum side up), 25 embryos per plate, on 604 medium, incubated at 28° C. in the dark for three days. Prior to bombardment, all embryos were transferred to plates containing 604 medium and 15% sucrose and then aligned within the 2.5-cm target zone in preparation for bombardment. Al media recipes are in the Table 10-18.
# A plasmid vector comprising the coding region of uidA operably linked to a ubiquitin promoter was made. This plasmid DNA plus plasmid DNA containing a BAR selectable marker gene operably linked to the double 35S promoter was precipitated onto 1.1 μm (average diameter) tungsten pellets using a CaCl2 precipitation procedure as follows:
# The final mixture was sonicated briefly and allowed to incubate under constant vortexing for 10 minutes. After the precipitation period, the tubes were centrifuged briefly, liquid removed, washed with […] 100% ethanol, and centrifuged for 30 seconds. Again the liquid was removed, and 60 μL 100% ethanol was added to the final tungsten particle pellet. For particle gun bombardment, the tungsten/DNA particles were briefly sonicated and 10 μL spotted onto the center of each macrocarrier and allowed to dry about two minutes before bombardment.
# (§6) The sample plates were bombarded at level #4 in a Biorad PDS-1000 Helium gun. All samples received a single shot at 650 PSI, with a total of six aliquots taken from each tube of prepared particles/DNA. Following bombardment the embryos were maintained on 604 medium +15% sucrose for three days in the dark, and then transferred to 604S medium with 3 mg/L bialaphos, maintained for three weeks on 3 mg/L bialaphos, and then transferred to 604J at 5 mg/L bialaphos. Once herbicide-resistant colonies were well established and ready for regeneration, approximately eight weeks after bombardment, the herbicide-resistant colonies were transferred to 288O regeneration medium containing 3 mg/L bialaphos, maintained in the dark or seven days, and then transferred to the light at 28° C. for shoot formation and elongation. Callus response, colony and plant recovery and GUS gene expression were monitored during the course of the experiments.
# The effects of injecting into ears three days after pollination 10 mL of a 100 μM of dicamba, an auxin analogue, on maize transformation was investigated.
# maize immature embryos = conditions: for 21 Day Callus Response / 42 Day Callus Response / Colonies to Plants / Colonies to Regeneration / Colonies with GUS Expression: 100 μM ear pre-treatment
# Experimental: as §5, §6
# Prior to bombardment, freshly excised embryos were placed onto either 560P, 601H, or 604 medium and incubated at 28° C. in the dark for three days. Prior to bombardment, all embryos were transferred to 604 with 15% sucrose. […] Colonies were transferred to regeneration medium containing 3 mg/L Bialaphos after 8-9 weeks in culture.
# [3] = Table 5, ear injection three days after pollination, 10 mL/ear
# [4] = Table 6, ear injection four days after pollination
# [5] = 100 μM ear injection three days after pollination, of 385 embryos
# [6] = 10 mL of 100 μM injected into ears three days after pollination, of 385 embryos
# [7] = initial culture medium 560P, 79 embryos
# [8] = initial culture medium 601H, 84 embryos
# [9] = initial culture medium 604, 128 embryos
smiles,measurement,setting,value
"O=C(O)COc1ccc(Cl)cc1Cl [2,4-D, 2,4-dichlorophenoxyacetic acid]",Number of GUS Positive Colonies,maize elite inbred P38 [1]; [3],2
same,Percent Colony Transformation,maize elite inbred P38 [1]; [3],4.20%
same,percent of transformed colonies relative to the no-infusion control (in words),maize elite inbred P38 [1]; pre-harvest ear injection,significantly greater percentages of transformed colonies than the control
same,Number of GUS Positive Colonies,maize elite inbred N46; [3],4
same,Percent Colony Transformation,maize elite inbred N46; [3],2.70%
same,21 Day Callus Response,maize ears,15.4%
same,42 Day Callus Response,maize ears,12.5%
same,Regenerable Colonies,maize ears,1.5%
same,Plants Transformed,maize ears,1.5%
same,recovery of regenerable colonies and transformed plants (in words),maize ears,Regenerable colonies and transformed maize plants were recovered
"CC1=CC(=O)CC(C)(C)[C@@]1(O)/C=C/C(C)=C\C(=O)O [ABA, abscisic acid]",Number of GUS Positive Colonies,maize elite inbred P38 [1]; [4],0
same,Percent Colony Transformation,maize elite inbred P38 [1]; [4],0%
same,Number of GUS Positive Colonies,maize elite inbred N46; [4],25
same,Percent Colony Transformation,maize elite inbred N46; [4],20%
same,percent of transformed colonies relative to the no-infusion control (in words),maize elite inbred N46,largest increase in percent colony transformation above the control
"NC1(C(=O)O)CC1 [ACC, aminocyclopropane-1-carboxylic acid]",Number of GUS Positive Colonies,maize elite inbred P38 [1]; [4],0
same,Percent Colony Transformation,maize elite inbred P38 [1]; [4],0%
same,Number of GUS Positive Colonies,maize elite inbred N46; [4],12
same,Percent Colony Transformation,maize elite inbred N46; [4],6.80%
"C/C(=C\CNc1ncnc2c1ncn2[C@@H]1O[C@H](CO)[C@@H](O)[C@H]1O)CO [Zeatin riboside, zeatin riboside]",21 Day Callus Response,maize ears,9.4%
same,42 Day Callus Response,maize ears,9.4%
same,Regenerable Colonies,maize ears,0.6%
same,Plants Transformed,maize ears,0.6%
same,recovery of regenerable colonies and transformed plants (in words),maize ears,Regenerable colonies and transformed maize plants were recovered
COc1c(Cl)ccc(Cl)c1C(=O)O [dicamba],Number of GUS Positive Colonies,maize elite inbred P38 [1]; [3],11
same,Percent Colony Transformation,maize elite inbred P38 [1]; [3],1.10%
same,Number of GUS Positive Colonies,maize elite inbred N46; [3],89
same,Percent Colony Transformation,maize elite inbred N46; [3],9.50%
same,percent of transformed colonies relative to the no-infusion control (in words),maize elite inbred N46,superior transformation results
same,Colonies Expressing GUS,maize elite inbred P38 [2]; [5],8.6%
same,Colonies to Plants,maize elite inbred P38 [2]; [5],4.2%
same,Colonies to Regeneration,maize elite inbred P38 [2]; [5],29.1%
same,Plants Transformed,"maize elite inbred P38 [2]; 100 μM ear injection three days after pollination, particle bombardment, of 385 embryos",3.11%
same,colonies that produced escapes,"maize elite inbred P38 [2]; 100 μM pre-treatment, of the plants recovered",two
same,21 Day Callus Response,maize elite inbred P38 [2]; [6],37.9%
same,42 Day Callus Response,maize elite inbred P38 [2]; [6],40%
same,56 Day Callus Response,maize elite inbred P38 [2]; [6],32.2%
same,Type I embryogenic callus response rate versus non pre-treated control (in words),maize elite inbred P38 [2]; ears pre-treated with 100 μM,"higher early in the experiment, and was maintained over the course of the study"
same,21 Day Callus Response,maize immature embryos; [7],12.7%(10)
same,42 Day Callus Response,maize immature embryos; [7],24%(19)
same,Colonies to Plants,maize immature embryos; [7],1.3%(1)
same,Colonies to Regeneration,maize immature embryos; [7],2.5%(2)
same,Colonies with GUS Expression,maize immature embryos; [7],2.5%(2)
same,21 Day Callus Response,maize immature embryos; [8],17.9%(16)
same,42 Day Callus Response,maize immature embryos; [8],16.5%(14)
same,Colonies to Plants,maize immature embryos; [8],0%
same,Colonies to Regeneration,maize immature embryos; [8],4.8%(4)
same,Colonies with GUS Expression,maize immature embryos; [8],2.4%(2)
same,21 Day Callus Response,maize immature embryos; [9],23.4%(30)
same,42 Day Callus Response,maize immature embryos; [9],33%(42)
same,Colonies to Plants,maize immature embryos; [9],0%
same,Colonies to Regeneration,maize immature embryos; [9],11.7%(15)
same,Colonies with GUS Expression,maize immature embryos; [9],4.7%(6)
same,colonies capable of regeneration,maize immature embryos; 100 μM pre-treatment / 560P medium,one
